From patent publication US20220242870A1, “HETEROCYCLE-FUSED PYRIMIDINE DERIVATIVE AND USE THEREOF” (VORONOI Inc., priority 2019, published 2022)

Tests used:
human FLT3-ITD enzyme = molecular target: T1, human FLT3-ITD enzyme (Homo sapiens, UniProt P36888); experiment: FLT3 enzyme inhibitory ability (ADP-Glo kinase assay); format: biochemical; details: human FLT3-ITD enzyme 10 ng, ATP 10 μM, 25° C. 1 hour
T1 sequence (P36888 1-993): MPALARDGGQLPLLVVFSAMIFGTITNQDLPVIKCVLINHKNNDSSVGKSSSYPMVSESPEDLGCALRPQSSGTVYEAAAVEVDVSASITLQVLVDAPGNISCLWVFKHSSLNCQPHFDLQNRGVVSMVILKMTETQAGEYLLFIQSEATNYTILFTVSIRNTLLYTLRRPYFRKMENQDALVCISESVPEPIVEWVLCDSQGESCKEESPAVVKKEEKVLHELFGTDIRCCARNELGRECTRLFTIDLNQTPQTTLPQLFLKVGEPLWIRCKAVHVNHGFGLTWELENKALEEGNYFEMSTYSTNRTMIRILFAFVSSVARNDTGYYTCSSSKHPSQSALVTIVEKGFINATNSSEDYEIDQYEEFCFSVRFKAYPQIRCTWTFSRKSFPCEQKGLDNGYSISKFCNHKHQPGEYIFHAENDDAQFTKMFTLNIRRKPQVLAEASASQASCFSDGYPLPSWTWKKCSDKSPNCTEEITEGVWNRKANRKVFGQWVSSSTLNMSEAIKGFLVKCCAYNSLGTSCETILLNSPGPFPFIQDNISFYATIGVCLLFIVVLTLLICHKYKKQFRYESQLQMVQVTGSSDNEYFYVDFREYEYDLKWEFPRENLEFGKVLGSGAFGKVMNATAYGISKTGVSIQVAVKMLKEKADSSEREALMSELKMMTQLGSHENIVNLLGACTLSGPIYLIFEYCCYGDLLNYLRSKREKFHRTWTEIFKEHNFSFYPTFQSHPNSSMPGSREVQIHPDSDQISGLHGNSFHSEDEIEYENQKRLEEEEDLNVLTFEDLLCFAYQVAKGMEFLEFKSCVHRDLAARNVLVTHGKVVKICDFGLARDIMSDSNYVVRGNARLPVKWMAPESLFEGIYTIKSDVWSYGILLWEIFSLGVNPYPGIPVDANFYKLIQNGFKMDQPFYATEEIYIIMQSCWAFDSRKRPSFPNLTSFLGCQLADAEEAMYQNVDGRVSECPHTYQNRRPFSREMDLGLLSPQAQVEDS
Procedure, shortened: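 Purified human FLT3-ITD (10 ng) with 10 μM ATP and specific substrate in 40 mM Tris-HCl pH 7.4, 20 mM MgCl2, 0.5 mg/mL BSA, 50 μM DTT, 1 h at 25 °C. ADP formation read by ADP-Glo luminescence; IC50 (nM) versus solvent-treated control.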

MV4-11 cells = experiment: AML cell proliferation inhibitory activity (CellTiter-Glo); format: cell-based; details: Homo sapiens, 72 hours
Experimental: (§1) The inhibitory activities of the example compounds according to the present invention on the proliferation of acute myeloid leukemia (AML) cells expressing the FLT3 mutant gene were evaluated. Specifically, RS4;11 and MV4-11 cells as acute myeloid leukemia cells expressing the FLT3 mutant gene were cultured in RPMI-1640 (Invitrogen) adding 10% FBS. The cells were seeded into each well of a clear bottom white 96-well plate (Corning) at 3000 to 5000 cells 24 hours before compound treatment. The compound was diluted in DMSO (diluted each three-fold, to a total of 12 concentrations) and injected at 0.5 μL each so as to be a final concentration of 0.3 nM to 50 μM. After 72 hours of the compound treatment, they were treated with CellTiter-Glo Luminescent Cell Viability assay (Promega) and stored at room temperature for 10 minutes, and luminescence intensities were measured with a reader (SynergyNeo, Biotek) to count viable cells. Each experiment was performed three times repeatedly. The result values were calculated as the cell growth rate (%) compared to the control treated with the solvent. The graph was derived using the GraphPad Prism program (version 5.0), the GI50 (nM) values were calculated, and the results were shown in Table 3 below.

RS4;11 cells = experiment: as above; format: cell-based; details: Homo sapiens, 72 hours
Experimental: as §1

human GST-HPK1 (1-346) = molecular target: T2, human GST-HPK1 (1-346) (Homo sapiens, UniProt Q92918); experiment: HPK1 enzyme inhibitory ability (ADP-Glo kinase assay); format: biochemical; details: human GST-HPK1 3 ng, ATP 3 uM, 25° C. 2 hours
T2 construct: purified human GST-HPK1 (1-346, Signalchem) enzyme; purchased Signalchem
T2 sequence (Q92918 1-346): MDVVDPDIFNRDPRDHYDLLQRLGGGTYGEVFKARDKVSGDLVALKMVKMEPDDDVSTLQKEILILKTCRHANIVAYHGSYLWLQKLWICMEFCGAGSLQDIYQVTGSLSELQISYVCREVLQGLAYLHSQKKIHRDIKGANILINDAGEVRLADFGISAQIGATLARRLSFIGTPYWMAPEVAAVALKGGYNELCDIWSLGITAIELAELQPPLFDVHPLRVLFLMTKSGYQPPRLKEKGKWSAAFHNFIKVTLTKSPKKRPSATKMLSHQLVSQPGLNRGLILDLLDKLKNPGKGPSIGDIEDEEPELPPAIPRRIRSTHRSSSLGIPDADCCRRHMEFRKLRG
Procedure, shortened: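 Human GST-HPK1(1-346), 3 ng, reacted with 3 uM ATP and specific substrate in 40 mM Tris-HCl pH 7.4, 20 mM MgCl2, 0.5 mg/mL BSA, 50 uM DTT for 2 h at 25° C. ADP-Glo luminescence read; IC50 (nM) relative to untreated solvent control.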

MCF-7 cells = experiment: Breast cancer cell line proliferation inhibitory activity (CellTiter-Glo 2.0); format: cell-based; details: Homo sapiens, MCF7, 120 hours
Procedure, shortened: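 MCF-7 cells exposed to a 12-point, 3-fold dilution series (final 0.00005–10 μM) for 120 h at 37 °C. Viability read by CellTiter-Glo 2.0 luminescence, expressed as percent of vehicle-treated cells. GI50 (nM) derived from the curves.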

SMILES | IC50 (human FLT3-ITD enzyme) | GI50 (MV4-11 cells) | GI50 (RS4;11 cells) | IC50 (human GST-HPK1 (1-346)) | GI50 (MCF-7 cells)
CN1CCN(c2ccc(Nc3nc(N4N=CCC4c4ccncc4)c4sccc4n3)cc2)CC1 (centres unmarked) [Example 35, N-(4-(4-methylpiperazin-1-yl)phenyl)-4-(5-(pyridin-4-yl)-4,5-dihydro-1H-pyrazol-1-yl)thieno[3,2-d]pyrimidin-2-amine] | > 500 nM | 250 to 500 nM | > 500 nM | > 500 nM | > 500 nM
CCN1CCN(c2ccc(Nc3nc(N4N=CCC4c4ccccc4)c4sccc4n3)cc2)CC1 (centres unmarked) [Example 39, N-(4-(4-ethylpiperazin-1-yl)phenyl)-4-(5-phenyl-4,5-dihydro-1H-pyrazol-1-yl)thieno[3,2-d]pyrimidin-2-amine] | ≥ 250 nM | ≥ 250 nM | > 500 nM |  | 
CCN1CCN(c2ccc(Nc3nc(N4N=CCC4c4ccccc4)c4sccc4n3)c(OC)c2)CC1 (centres unmarked) [Example 41, N-(4-(4-ethylpiperazin-1-yl)-2-methoxyphenyl)-4-(5-phenyl-4,5-dihydro-1H-pyrazol-1-yl)thieno[3,2-d]pyrimidin-2-amine] | ≥ 250 nM | ≥ 250 nM | > 500 nM |  | 
CN1CCN(c2ccc(Nc3nc(N4N=CCC4c4cccc(F)c4)c4sccc4n3)cc2)CC1 (centres unmarked) [Example 36, 4-(5-(3-fluorophenyl)-4,5-dihydro-1H-pyrazol-1-yl)-N-(4-(4-methylpiperazin-1-yl)phenyl)thieno[3,2-d]pyrimidin-2-amine] | > 500 nM | ≥ 250 nM | > 500 nM | > 500 nM | 
CN1CCN(c2ccc(Nc3nc(N4N=CCC4c4cc5ccccc5cn4)c4sccc4n3)cc2)CC1 (centres unmarked) [Example 32, 4-(5-(isoquinolin-3-yl)-4,5-dihydro-1H-pyrazol-1-yl)-N-(4-(4-methylpiperazin-1-yl)phenyl)thieno[3,2-d]pyrimidin-2-amine] | > 500 nM | > 500 nM | > 500 nM |  | 
CN(C)CCN(C)c1ccc(Nc2nc(N3N=CCC3c3ccccc3)c3sccc3n2)cc1 (centres unmarked) [Example 2, N-(2-(dimethylamino)ethyl)-N-methyl-N-(4-(5-phenyl-4,5-dihydro-1H-pyrazol-1-yl)thieno[3,2-d]pyrimidin-2-yl)benzene-1,4-diamine] | 250 to 500 nM | ≥ 250 nM | > 500 nM |  | 
C1=NN(c2nc(Nc3ccc(N4CCC(N5CCOCC5)CC4)cc3)nc3ccsc23)C(c2ccccc2)C1 (centres unmarked) [Example 9, N-(4-(4-morpholinopiperidin-1-yl)phenyl)-4-(5-phenyl-4,5-dihydro-1H-pyrazol-1-yl)thieno[3,2-d]pyrimidin-2-amine] | > 500 nM | > 500 nM | > 500 nM |  | 
COc1cc(Nc2nc(N3N=CCC3c3ccccc3)c3sccc3n2)ccc1N1CCN(C)CC1 (centres unmarked) [Example 40, N-(3-methoxy-4-(4-methylpiperazin-1-yl)phenyl)-4-(5-phenyl-4,5-dihydro-1H-pyrazol-1-yl)thieno[3,2-d]pyrimidin-2-amine] | 250 to 500 nM | ≥ 250 nM | > 500 nM |  | 
CN1CCN(c2ccc(Nc3nc(N4N=CCC4c4ccccn4)c4sccc4n3)cc2)CC1 (centres unmarked) [Example 33, N-(4-(4-methylpiperazin-1-yl)phenyl)-4-(5-(pyridin-2-yl)-4,5-dihydro-1H-pyrazol-1-yl)thieno[3,2-d]pyrimidin-2-amine] | > 500 nM | > 500 nM | > 500 nM |  | 
COc1cc(Nc2nc(N3OCC[C@H]3c3ccccc3)c3cc[nH]c3n2)ccc1N1CCC(N2CCN(C)CC2)CC1 [Example 87, (S)-N-(3-methoxy-4-(4-(4-methylpiperazin-1-yl)piperidin-1-yl)phenyl)-4-(3-phenylisoxazolidin-2-yl)-7H-pyrrolo[2,3-d]pyrimidin-2-amine] | 250 to 500 nM | ≥ 250 nM |  | ≥ 250 nM | > 500 nM
CN1CCN(c2ccc(Nc3nc(N4OCC[C@H]4c4ccccc4)c4sccc4n3)cc2)CC1 [Example 59, (S)-N-(4-(4-methylpiperazin-1-yl)phenyl)-4-(3-phenylisoxazolidin-2-yl)thieno[3,2-d]pyrimidin-2-amine] | ≥ 250 nM | > 500 nM |  | > 500 nM | > 500 nM
CCN(CC)CCCOc1c(C)cc(Nc2nc(N3OCC[C@H]3c3ccccc3)c3cc[nH]c3n2)cc1C [Example 101, (S)-N-(4-(3-(diethylamino)propoxy)-3,5-dimethylphenyl)-4-(3-phenylisoxazolidin-2-yl)-7H-pyrrolo[2,3-d]pyrimidin-2-amine] | ≥ 250 nM | > 500 nM |  | ≥ 250 nM | > 500 nM
CN1CCc2cc(Nc3nc(N4OCC[C@H]4c4ccccc4)c4cc[nH]c4n3)ccc2C1 [Example 109, (S)-2-methyl-N-(4-(3-phenylisoxazolidin-2-yl)-7H-pyrrolo[2,3-d]pyrimidin-2-yl)-1,2,3,4-tetrahydroisoquinolin-6-amine] | ≥ 250 nM | ≥ 250 nM |  | ≥ 250 nM | > 500 nM
COc1cc(Nc2nc(N3N=CCC3c3ccccc3)c3sccc3n2)cc(OC)c1OC (centres unmarked) [Example 51, 4-(5-phenyl-4,5-dihydro-1H-pyrazol-1-yl)-N-(3,4,5-trimethoxyphenyl)thieno[3,2-d]pyrimidin-2-amine] | > 500 nM | ≥ 250 nM | > 500 nM |  | 
COc1cccc([C@@H]2CCON2c2nc(Nc3ccc(N4CCN(C)CC4)cc3)nc3[nH]ccc23)c1 [Example 75, (S)-4-(3-(3-methoxyphenyl)isoxazolidin-2-yl)-N-(4-(4-methylpiperazin-1-yl)phenyl)-7H-pyrrolo[2,3-d]pyrimidin-2-amine] | 250 to 500 nM | > 500 nM |  | > 500 nM | > 500 nM
CN1CCN(C(=O)Nc2ccc(Nc3nc(N4N=CCC4c4ccccc4)c4sccc4n3)cc2)CC1 (centres unmarked) [Example 20, 4-methyl-N-(4-((4-(5-phenyl-4,5-dihydro-1H-pyrazol-1-yl)thieno[3,2-d]pyrimidin-2-yl)amino)phenyl)piperazine-1-carboxamide] | ≥ 250 nM | 250 to 500 nM | > 500 nM |  | 
CCN(CC)CCOc1c(C)cc(Nc2nc(N3N=CCC3c3ccccc3)c3sccc3n2)cc1C (centres unmarked) [Example 46, N-(4-(2-(diethylamino)ethoxy)-3,5-dimethylphenyl)-4-(5-phenyl-4,5-dihydro-1H-pyrazol-1-yl)thieno[3,2-d]pyrimidin-2-amine] | > 500 nM | 250 to 500 nM | > 500 nM |  | 
